Experimental data: ChEMBL document CHEMBL1201862, “PubChem BioAssay data set” (2004)
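Values below derive from 48-hour exposures of cells grown in 96-well plates, with endpoints linearly interpolated between the two concentrations bracketing the appropriate inhibition level. At the GI50, growth is halved.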 Calls of active or inactive are those of the source. Rule as the data show it: active = GI50 up to about 1.1 µM and inactive = higher.

Tests used:
Assay in all cases: NCI tumour cell line growth inhibition, 48 h
HCT-116 = test system: HCT-116
SK-MEL-28 = test system: SK-MEL-28
RXF 393 = test system: RXF 393
NCI-H23 = test system: NCI-H23
HOP-62 = test system: HOP-62
SK-MEL-2 = test system: SK-MEL-2
OVCAR-8 = test system: OVCAR-8
CAKI-1 = test system: CAKI-1
SK-OV-3 = test system: SK-OV-3
SW-620 = test system: SW-620
IGROV-1 = test system: IGROV-1
U-251 = test system: U-251
KM12 = test system: KM12
OVCAR-5 = test system: OVCAR-5
TK-10 = test system: TK-10
MOLT-4 = test system: MOLT-4
Malme-3M = test system: Malme-3M
SR = test system: SR

Row | Structure (SMILES) | GI50 (HCT-116) | GI50 (SK-MEL-28) | GI50 (RXF 393) | GI50 (NCI-H23) | GI50 (HOP-62) | GI50 (SK-MEL-2) | GI50 (OVCAR-8) | GI50 (CAKI-1) | GI50 (SK-OV-3) | GI50 (SW-620) | GI50 (IGROV-1) | GI50 (U-251) | GI50 (KM12) | GI50 (OVCAR-5) | GI50 (TK-10) | GI50 (MOLT-4) | GI50 (Malme-3M) | GI50 (SR)
1 | N=C1CSC2=NC3=C(CCC/C3=C\c3ccccc3)C(c3ccccc3)N12 (configuration not stated) | 3.54 µM (inactive) | 7.5 µM (inactive) | 4.5 µM (inactive) | 3.93 µM (inactive) | 11 µM (inactive) | 2.27 µM (inactive) | 5.92 µM (inactive) | 12.5 µM (inactive) | 15.1 µM (inactive) | 3.92 µM (inactive) | 5.6 µM (inactive) | 3.42 µM (inactive) | 3.7 µM (inactive) | 6.53 µM (inactive) | 5.28 µM (inactive) | 2.49 µM (inactive) | 17.2 µM (inactive) | 
2 | N#CCC(=O)N1CCCOCCC1 | > 100 µM (inactive) | > 100 µM (inactive) | > 100 µM (inactive) | > 100 µM (inactive) | > 100 µM (inactive) | > 100 µM (inactive) |  | > 100 µM (inactive) | > 100 µM (inactive) | 6.73 µM (inactive) | > 100 µM (inactive) | > 100 µM (inactive) | > 100 µM (inactive) | > 100 µM (inactive) | > 100 µM (inactive) | 0.46 µM (active) | > 100 µM (inactive) | 
3 | O=S(=O)(CC1=NC2C=CC=CC2N=C1)NCc1ccccc1 (configuration not stated) | > 100 µM (inactive) | > 100 µM (inactive) | 12.9 µM (inactive) | > 100 µM (inactive) | > 100 µM (inactive) | > 100 µM (inactive) | > 100 µM (inactive) | > 100 µM (inactive) | > 100 µM (inactive) | > 100 µM (inactive) | > 100 µM (inactive) | > 100 µM (inactive) | > 100 µM (inactive) | > 100 µM (inactive) | > 100 µM (inactive) | 69.5 µM (inactive) | > 100 µM (inactive) | 
4 | COc1cc(C2C(Cl)C(=O)N2NC(=O)c2ccc(NC(C)=O)cc2)ccc1O (configuration not stated) | > 100 µM (inactive) | > 100 µM (inactive) | > 100 µM (inactive) | > 100 µM (inactive) | > 100 µM (inactive) | > 100 µM (inactive) | > 100 µM (inactive) | > 100 µM (inactive) | > 100 µM (inactive) | > 100 µM (inactive) | > 100 µM (inactive) | > 100 µM (inactive) |  | > 100 µM (inactive) | > 100 µM (inactive) | > 100 µM (inactive) | > 100 µM (inactive) | 
5 | Cc1ccnc2nc(-c3ccc4ccccc4c3)cc(O)c12 |  | 1.76 µM (inactive) |  | 2.56 µM (inactive) | 2.08 µM (inactive) | 0.865 µM (active) | 2.83 µM (inactive) |  | 1.09 µM (active) | 0.451 µM (active) | 1.2 µM (inactive) |  | 0.452 µM (active) | 6.3 µM (inactive) | 1.75 µM (inactive) | 0.479 µM (active) | 1.14 µM (inactive) | 0.296 µM (active)
6 | Cc1ccccc1-n1c(N)c(-c2nc3ccccc3[nH]2)sc1=S |  | 20 µM (inactive) | 30.1 µM (inactive) | 23.3 µM (inactive) | 25 µM (inactive) | 23.9 µM (inactive) | 32.8 µM (inactive) | 37.8 µM (inactive) | 43.4 µM (inactive) | 31.1 µM (inactive) | 24.8 µM (inactive) | > 10 µM (inactive) | 20.7 µM (inactive) | 37 µM (inactive) | 39.3 µM (inactive) | 27.7 µM (inactive) | 21.5 µM (inactive) | 
7 | CC(C)N1CN(C(C(=O)N[C@@H]2C(=O)N3C2SC(C)(C)C3C(=O)O)c2ccc(O)cc2)CSC1=S (some centres not stated) | > 100 µM (inactive) | > 100 µM (inactive) |  | > 100 µM (inactive) | > 100 µM (inactive) | > 100 µM (inactive) | > 100 µM (inactive) | > 100 µM (inactive) | > 100 µM (inactive) | 16.9 µM (inactive) | > 100 µM (inactive) | > 100 µM (inactive) | > 100 µM (inactive) | > 100 µM (inactive) | > 100 µM (inactive) | > 100 µM (inactive) | > 100 µM (inactive) | 
8 | C#Cc1c(C)c(/C=C/C(C)=C/C(=O)OC)n(C)c1C | 65.8 µM (inactive) |  |  | > 100 µM (inactive) | > 100 µM (inactive) |  | 71.9 µM (inactive) | > 100 µM (inactive) | > 100 µM (inactive) | > 100 µM (inactive) | > 100 µM (inactive) | > 100 µM (inactive) | > 100 µM (inactive) | > 100 µM (inactive) | > 100 µM (inactive) | 23.4 µM (inactive) | > 100 µM (inactive) | 
9 | c1cc2ccc1C1NCCCN1CCN1CCCNC1c1ccc(cc1)C1NCCCN1CCN1CCCNC21 (configuration not stated) | 42.6 µM (inactive) | > 100 µM (inactive) |  | > 100 µM (inactive) | > 100 µM (inactive) | > 100 µM (inactive) | > 100 µM (inactive) | > 100 µM (inactive) | > 100 µM (inactive) | 18.5 µM (inactive) | > 100 µM (inactive) | 54.2 µM (inactive) | > 100 µM (inactive) | > 100 µM (inactive) | > 100 µM (inactive) | > 100 µM (inactive) | 44.4 µM (inactive) | 
10 | Cc1ccc(NC(=O)C(=O)CC(=O)c2ccccc2)cc1C | 60.3 µM (inactive) | > 100 µM (inactive) | > 100 µM (inactive) | > 100 µM (inactive) | > 100 µM (inactive) |  | > 100 µM (inactive) | 56.8 µM (inactive) | > 100 µM (inactive) | > 100 µM (inactive) | 69.8 µM (inactive) | > 100 µM (inactive) | 35.8 µM (inactive) | > 100 µM (inactive) | > 100 µM (inactive) |  | > 100 µM (inactive) | 
11 | CCC1C(C)c2c([nH]c3ccccc23)C2C(=O)N(c3ccccc3)C(=O)C21 (configuration not stated) |  | 17.7 µM (inactive) | 12.7 µM (inactive) | 18.6 µM (inactive) |  |  | 14.5 µM (inactive) |  | 19.4 µM (inactive) | 16.5 µM (inactive) | 3.67 µM (inactive) | 14.6 µM (inactive) | 15 µM (inactive) |  | 31.3 µM (inactive) | 9.31 µM (inactive) | 16.6 µM (inactive) | 8.41 µM (inactive)
12 | CC(C)C1CC[C@@H](C)C[C@@]1(O)CC(N)=O (some centres not stated) | > 100 µM (inactive) | > 100 µM (inactive) |  | > 100 µM (inactive) |  | > 100 µM (inactive) | > 100 µM (inactive) | > 100 µM (inactive) | > 100 µM (inactive) | > 100 µM (inactive) | > 100 µM (inactive) | > 100 µM (inactive) | > 100 µM (inactive) | > 100 µM (inactive) | > 100 µM (inactive) | > 100 µM (inactive) | > 100 µM (inactive) | > 100 µM (inactive)
13 | O=C(NCCCCNc1cccccc1=O)OCc1ccccc1 | > 100 µM (inactive) | > 100 µM (inactive) |  | > 100 µM (inactive) | > 100 µM (inactive) | > 100 µM (inactive) | 54 µM (inactive) | > 100 µM (inactive) | > 100 µM (inactive) | > 100 µM (inactive) | > 100 µM (inactive) | > 100 µM (inactive) | > 100 µM (inactive) | > 100 µM (inactive) | > 100 µM (inactive) | > 100 µM (inactive) | > 100 µM (inactive) | 
